Results from patent US20200170975A1 (Strongbridge Dublin Limited, priority 2018, published 2020).
Where two headings read alike, the source gives them in different places.

What was measured:
MATE1 = target: T1, MATE1 (Homo sapiens, UniProt Q96FL8); settings: for % control / Background corrected uptake rate: HEK293 cells; for Uptake, MATE1 (Average ± SD): MATE1 HEK293 cells; for Uptake, Control (Average ± SD): control HEK293 cells
T1 sequence (Q96FL8 1-570): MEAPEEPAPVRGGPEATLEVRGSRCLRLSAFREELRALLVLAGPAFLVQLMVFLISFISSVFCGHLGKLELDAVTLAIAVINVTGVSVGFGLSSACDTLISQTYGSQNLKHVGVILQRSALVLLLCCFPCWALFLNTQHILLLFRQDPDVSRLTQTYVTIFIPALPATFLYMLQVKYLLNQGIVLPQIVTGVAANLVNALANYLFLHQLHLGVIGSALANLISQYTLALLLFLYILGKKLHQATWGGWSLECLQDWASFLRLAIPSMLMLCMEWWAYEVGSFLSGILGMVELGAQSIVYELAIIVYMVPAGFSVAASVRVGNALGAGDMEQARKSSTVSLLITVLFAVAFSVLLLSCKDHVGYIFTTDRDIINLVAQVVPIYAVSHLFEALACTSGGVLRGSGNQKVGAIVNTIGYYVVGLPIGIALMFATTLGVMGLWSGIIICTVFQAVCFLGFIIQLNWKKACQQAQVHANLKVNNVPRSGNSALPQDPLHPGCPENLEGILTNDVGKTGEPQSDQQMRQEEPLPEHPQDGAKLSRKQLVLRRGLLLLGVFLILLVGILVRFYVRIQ
Protocol: (§1) [^14C]-Metformin (1 mM) was provided as a solid and was prepared in Hank's balanced salt solution (HBSS).
(§2) Cells were plated onto standard 24-well tissue culture plates in cell culture medium 1 to 3 days before the experiment. MATE1 and MATE2-K and control cells were incubated with butyric acid (10 mM) for 24 hours before the experiment to inhibit suppression of the transporter.

MATE2-K = MATE2-K (Homo sapiens, UniProt Q86VL8); settings: for Uptake, MATE2-K (Average ± SD): MATE2-K HEK293 cells; for Uptake, MATE2-K (Average ± SD) / % control / Background corrected uptake rate / Uptake, Control (Average ± SD): [14C]-Metformin 10 μM; for Uptake, Control (Average ± SD): control HEK293 cells
Sequence of MATE2-K (Q86VL8 1-566 isoform Q86VL8-3): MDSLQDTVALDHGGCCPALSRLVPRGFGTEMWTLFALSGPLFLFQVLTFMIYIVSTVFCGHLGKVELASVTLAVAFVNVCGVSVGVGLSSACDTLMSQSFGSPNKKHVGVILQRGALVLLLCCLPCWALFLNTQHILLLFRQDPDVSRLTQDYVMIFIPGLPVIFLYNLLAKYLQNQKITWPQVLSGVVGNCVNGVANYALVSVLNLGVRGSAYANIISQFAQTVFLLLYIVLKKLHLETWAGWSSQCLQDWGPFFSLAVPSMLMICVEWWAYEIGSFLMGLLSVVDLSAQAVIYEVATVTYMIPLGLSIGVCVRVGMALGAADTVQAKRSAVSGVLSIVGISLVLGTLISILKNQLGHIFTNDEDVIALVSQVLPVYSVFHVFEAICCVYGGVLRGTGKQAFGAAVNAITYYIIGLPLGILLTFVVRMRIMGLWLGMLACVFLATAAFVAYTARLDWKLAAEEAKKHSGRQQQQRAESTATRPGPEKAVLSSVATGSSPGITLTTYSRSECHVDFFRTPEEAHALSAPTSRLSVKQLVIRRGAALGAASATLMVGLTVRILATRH
Protocol: as §1, §2

P-gp = P-gp (Homo sapiens, UniProt P08183)
Sequence of P-gp (P08183 whole entry): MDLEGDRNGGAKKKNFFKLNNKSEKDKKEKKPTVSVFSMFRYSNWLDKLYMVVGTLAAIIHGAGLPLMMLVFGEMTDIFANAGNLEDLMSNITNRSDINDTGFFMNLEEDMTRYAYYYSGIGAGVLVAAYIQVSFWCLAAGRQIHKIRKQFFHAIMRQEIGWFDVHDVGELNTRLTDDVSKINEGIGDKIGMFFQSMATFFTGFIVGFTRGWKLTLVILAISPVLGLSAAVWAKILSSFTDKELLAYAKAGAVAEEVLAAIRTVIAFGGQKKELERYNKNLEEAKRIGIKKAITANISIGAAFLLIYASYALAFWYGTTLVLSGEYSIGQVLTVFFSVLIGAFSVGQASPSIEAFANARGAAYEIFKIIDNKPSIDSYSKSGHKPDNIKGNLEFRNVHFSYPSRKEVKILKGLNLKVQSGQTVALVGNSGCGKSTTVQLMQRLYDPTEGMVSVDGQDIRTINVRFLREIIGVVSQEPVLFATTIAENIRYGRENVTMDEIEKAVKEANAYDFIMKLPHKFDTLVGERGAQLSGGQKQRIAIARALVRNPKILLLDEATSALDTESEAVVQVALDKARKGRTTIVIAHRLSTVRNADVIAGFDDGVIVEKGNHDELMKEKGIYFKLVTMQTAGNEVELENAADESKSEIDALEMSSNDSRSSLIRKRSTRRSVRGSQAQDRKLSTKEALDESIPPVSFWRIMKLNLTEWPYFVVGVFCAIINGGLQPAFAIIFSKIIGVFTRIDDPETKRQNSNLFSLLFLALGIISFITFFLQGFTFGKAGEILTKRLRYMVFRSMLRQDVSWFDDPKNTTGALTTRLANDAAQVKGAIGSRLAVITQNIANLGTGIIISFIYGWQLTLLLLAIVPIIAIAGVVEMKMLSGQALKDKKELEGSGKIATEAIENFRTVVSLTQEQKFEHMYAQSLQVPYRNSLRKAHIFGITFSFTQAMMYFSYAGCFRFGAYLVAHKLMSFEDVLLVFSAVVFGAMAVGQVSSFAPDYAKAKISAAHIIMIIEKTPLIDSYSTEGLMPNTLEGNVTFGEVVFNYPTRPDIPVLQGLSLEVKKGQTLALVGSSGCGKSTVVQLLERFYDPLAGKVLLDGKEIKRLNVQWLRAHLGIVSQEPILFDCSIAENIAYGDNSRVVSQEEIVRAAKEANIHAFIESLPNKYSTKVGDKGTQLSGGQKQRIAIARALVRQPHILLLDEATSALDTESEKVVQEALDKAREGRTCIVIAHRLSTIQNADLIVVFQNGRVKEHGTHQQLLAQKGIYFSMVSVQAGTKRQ

OCT1 = target: T2, OCT1 (Homo sapiens, UniProt O15245); settings: for Uptake, OCT1 (Average ± SD): OCT1 HEK293 cells; for Uptake, OCT1 (Average ± SD) / % control / Background corrected uptake rate / Uptake, Control (Average ± SD): [14C]-TEA bromide 5 μM; for Uptake, Control (Average ± SD): control HEK293 cells
T2 sequence (O15245 1-554): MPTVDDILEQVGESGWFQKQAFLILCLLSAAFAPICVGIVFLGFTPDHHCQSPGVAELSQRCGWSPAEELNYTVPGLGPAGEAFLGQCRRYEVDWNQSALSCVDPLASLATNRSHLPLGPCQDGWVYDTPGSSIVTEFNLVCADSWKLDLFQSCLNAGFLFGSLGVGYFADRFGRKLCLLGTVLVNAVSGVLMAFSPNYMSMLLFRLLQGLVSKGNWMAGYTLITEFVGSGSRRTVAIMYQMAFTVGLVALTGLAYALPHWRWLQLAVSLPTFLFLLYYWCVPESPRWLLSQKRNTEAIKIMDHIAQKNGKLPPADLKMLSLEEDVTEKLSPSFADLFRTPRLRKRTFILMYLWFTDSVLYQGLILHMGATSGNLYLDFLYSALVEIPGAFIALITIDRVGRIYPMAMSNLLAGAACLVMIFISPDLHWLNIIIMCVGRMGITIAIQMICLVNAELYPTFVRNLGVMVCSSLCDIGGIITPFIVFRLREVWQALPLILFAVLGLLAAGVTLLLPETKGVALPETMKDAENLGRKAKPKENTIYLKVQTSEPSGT

For `NS(=O)(=O)c1cc(Cl)c(Cl)c(S(N)(=O)=O)c1` [Dichlorphenamide, 4,5-dichloro-1,3-benzenedisulfonamide], the IC50 (MATE1) was over 1000 µM, the “% control” value (MATE1; inhibitor 1 μm) was 104% and the “Background corrected uptake rate” value (MATE1; inhibitor 1 μm) was 85.8 pmol/mg/min. The “% control” value (MATE1; inhibitor 3 μm) was 95.2%, the “Background corrected uptake rate” value (MATE1; inhibitor 3 μm) was 78.8 pmol/mg/min and the “% control” value (MATE1; inhibitor 10 μm) was 96.4%. For the same compound, the “Background corrected uptake rate” value (MATE1; inhibitor 10 μm) was 79.8 pmol/mg/min, the “% control” value (MATE1; inhibitor 30 μm) was 103% and the “Background corrected uptake rate” value (MATE1; inhibitor 30 μm) was 85.0 pmol/mg/min. The “% control” value (MATE1; inhibitor 100 μm) was 99.8%, the “Background corrected uptake rate” value (MATE1; inhibitor 100 μm) was 82.6 pmol/mg/min and the “% control” value (MATE1; inhibitor 300 μm) was 94.7%. The “Background corrected uptake rate” value (MATE1; inhibitor 300 μm) was 78.4 pmol/mg/min, the “% control” value (MATE1; inhibitor 1000 μm) was 90.3% and the “Background corrected uptake rate” value (MATE1; inhibitor 1000 μm) was 74.7 pmol/mg/min. The “Uptake, MATE1 (Average ± SD)” value (MATE1; inhibitor 1 μm) was 436 ± 23 pmol/mg protein, the “Uptake, MATE1 (Average ± SD)” value (MATE1; inhibitor 3 μm) was 401 ± 7 pmol/mg protein and the “Uptake, MATE1 (Average ± SD)” value (MATE1; inhibitor 10 μm) was 406 ± 12 pmol/mg protein. The “Uptake, MATE1 (Average ± SD)” value (MATE1; inhibitor 30 μm) was 432 ± 10 pmol/mg protein, the “Uptake, MATE1 (Average ± SD)” value (MATE1; inhibitor 100 μm) was 421 ± 17 pmol/mg protein and the “Uptake, MATE1 (Average ± SD)” value (MATE1; inhibitor 300 μm) was 398 ± 17 pmol/mg protein. The “Uptake, MATE1 (Average ± SD)” value (MATE1; inhibitor 1000 μm) was 379 ± 13 pmol/mg protein, the “Uptake, Control (Average ± SD)” value (MATE1; inhibitor 1 μm) was 6.66 ± 1.31 pmol/mg protein and the “Uptake, Control (Average ± SD)” value (MATE1; inhibitor 3 μm) was 6.75 ± 1.65 pmol/mg protein. For the same compound, the “Uptake, Control (Average ± SD)” value (MATE1; inhibitor 10 μm) was 7.43 ± 1.34 pmol/mg protein, the “Uptake, Control (Average ± SD)” value (MATE1; inhibitor 30 μm) was 6.79 ± 0.89 pmol/mg protein and the “Uptake, Control (Average ± SD)” value (MATE1; inhibitor 100 μm) was 7.52 ± 0.96 pmol/mg protein. The “Uptake, Control (Average ± SD)” value (MATE1; inhibitor 300 μm) was 5.56 ± 0.16 pmol/mg protein, the “Uptake, Control (Average ± SD)” value (MATE1; inhibitor 1000 μm) was 5.52 ± 0.21 pmol/mg protein and the IC50 (MATE1; human, pH 8.5) was over 1000 µM. The IC50 (MATE2-K) was over 1000 µM, the “Uptake, MATE2-K (Average ± SD)” value (MATE2-K; inhibitor 1 μM) was 149 ± 29 pmol/mg protein and the “Uptake, MATE2-K (Average ± SD)” value (MATE2-K; inhibitor 3 μM) was 159 ± 19 pmol/mg protein. The “Uptake, MATE2-K (Average ± SD)” value (MATE2-K; inhibitor 10 μM) was 113 ± 8 pmol/mg protein, the “Uptake, MATE2-K (Average ± SD)” value (MATE2-K; inhibitor 30 μM) was 124 ± 36 pmol/mg protein and the “Uptake, MATE2-K (Average ± SD)” value (MATE2-K; inhibitor 100 μM) was 137 ± 15 pmol/mg protein. The “Uptake, MATE2-K (Average ± SD)” value (MATE2-K; inhibitor 300 μM) was 166 ± 16 pmol/mg protein, the “Uptake, MATE2-K (Average ± SD)” value (MATE2-K; inhibitor 1000 μM) was 106 ± 29 pmol/mg protein and the “% control” value (MATE2-K; inhibitor 1 μM) was 101%. The “Background corrected uptake rate” value (MATE2-K; inhibitor 1 μM) was 28.0 pmol/mg/min, the “% control” value (MATE2-K; inhibitor 3 μM) was 108% and the “Background corrected uptake rate” value (MATE2-K; inhibitor 3 μM) was 29.9 pmol/mg/min. The “% control” value (MATE2-K; inhibitor 10 μM) was 76.1%, the “Background corrected uptake rate” value (MATE2-K; inhibitor 10 μM) was 21.0 pmol/mg/min and the “% control” value (MATE2-K; inhibitor 30 μM) was 83.7%. For the same compound, the “Background corrected uptake rate” value (MATE2-K; inhibitor 30 μM) was 23.1 pmol/mg/min, the “% control” value (MATE2-K; inhibitor 100 μM) was 92.4% and the “Background corrected uptake rate” value (MATE2-K; inhibitor 100 μM) was 25.5 pmol/mg/min. For the same compound, the “% control” value (MATE2-K; inhibitor 300 μM) was 114%, the “Background corrected uptake rate” value (MATE2-K; inhibitor 300 μM) was 31.4 pmol/mg/min and the “% control” value (MATE2-K; inhibitor 1000 μM) was 73.2%. The “Background corrected uptake rate” value (MATE2-K; inhibitor 1000 μM) was 20.2 pmol/mg/min, the “Uptake, Control (Average ± SD)” value (MATE2-K; inhibitor 1 μM) was 9.21 ± 0.93 pmol/mg protein and the “Uptake, Control (Average ± SD)” value (MATE2-K; inhibitor 3 μM) was 9.44 ± 2.27 pmol/mg protein. For the same compound, the “Uptake, Control (Average ± SD)” value (MATE2-K; inhibitor 10 μM) was 8.28 ± 1.46 pmol/mg protein, the “Uptake, Control (Average ± SD)” value (MATE2-K; inhibitor 30 μM) was 8.51 ± 1.05 pmol/mg protein and the “Uptake, Control (Average ± SD)” value (MATE2-K; inhibitor 100 μM) was 9.21 ± 1.52 pmol/mg protein. The “Uptake, Control (Average ± SD)” value (MATE2-K; inhibitor 300 μM) was 8.86 ± 0.93 pmol/mg protein, the “Uptake, Control (Average ± SD)” value (MATE2-K; inhibitor 1000 μM) was 5.13 ± 0.40 pmol/mg protein and the IC50 (MATE2-K; human, pH 8.5) was over 1000 µM. The IC50 (P-gp) was over 1000 µM, the “Uptake, OCT1 (Average ± SD)” value (OCT1; inhibitor 1 μm) was 121 ± 11 pmol/mg protein and the “Uptake, OCT1 (Average ± SD)” value (OCT1; inhibitor 3 μm) was 125 ± 5 pmol/mg protein. The “Uptake, OCT1 (Average ± SD)” value (OCT1; inhibitor 10 μm) was 111 ± 4 pmol/mg protein, the “Uptake, OCT1 (Average ± SD)” value (OCT1; inhibitor 30 μm) was 122 ± 14 pmol/mg protein and the “Uptake, OCT1 (Average ± SD)” value (OCT1; inhibitor 100 μm) was 128 ± 6 pmol/mg protein. For the same compound, the “Uptake, OCT1 (Average ± SD)” value (OCT1; inhibitor 300 μm) was 130 ± 10 pmol/mg protein, the “Uptake, OCT1 (Average ± SD)” value (OCT1; inhibitor 1000 μm) was 77.9 ± 3.0 pmol/mg protein and the “% control” value (OCT1; inhibitor 1 μm) was 98.6%. For the same compound, the “Background corrected uptake rate” value (OCT1; inhibitor 1 μm) was 7.76 pmol/mg/min, the “% control” value (OCT1; inhibitor 3 μm) was 102% and the “Background corrected uptake rate” value (OCT1; inhibitor 3 μm) was 8.07 pmol/mg/min. The “% control” value (OCT1; inhibitor 10 μm) was 90.6%, the “Background corrected uptake rate” value (OCT1; inhibitor 10 μm) was 7.13 pmol/mg/min and the “% control” value (OCT1; inhibitor 30 μm) was 99.7%. The “Background corrected uptake rate” value (OCT1; inhibitor 30 μm) was 7.85 pmol/mg/min, the “% control” value (OCT1; inhibitor 100 μm) was 105% and the “Background corrected uptake rate” value (OCT1; inhibitor 100 μm) was 8.26 pmol/mg/min. The “% control” value (OCT1; inhibitor 300 μm) was 107%, the “Background corrected uptake rate” value (OCT1; inhibitor 300 μm) was 8.40 pmol/mg/min and the “% control” value (OCT1; inhibitor 1000 μm) was 63.5%. The “Background corrected uptake rate” value (OCT1; inhibitor 1000 μm) was 5.00 pmol/mg/min, the “Uptake, Control (Average ± SD)” value (OCT1; inhibitor 1 μm) was 4.28 ± 1.48 pmol/mg protein and the “Uptake, Control (Average ± SD)” value (OCT1; inhibitor 3 μm) was 4.44 ± 1.97 pmol/mg protein. The “Uptake, Control (Average ± SD)” value (OCT1; inhibitor 10 μm) was 4.28 ± 0.92 pmol/mg protein, the “Uptake, Control (Average ± SD)” value (OCT1; inhibitor 30 μm) was 3.88 ± 0.48 pmol/mg protein and the “Uptake, Control (Average ± SD)” value (OCT1; inhibitor 100 μm) was 4.12 ± 0.73 pmol/mg protein. For the same compound, the “Uptake, Control (Average ± SD)” value (OCT1; inhibitor 300 μm) was 3.88 ± 1.11 pmol/mg protein, the “Uptake, Control (Average ± SD)” value (OCT1; inhibitor 1000 μm) was 2.99 ± 1.46 pmol/mg protein and the IC50 (OCT1; human, pH 7.4) was over 1000 µM.
